How the values were obtained:
[1] = system: facial skin; assay: Clinical investigator grading of facial attributes, 9-point ordinal scale, 12 week clinical study; type: in vivo, human; details: for Cheek Wrinkles clinical grading Mean: Baseline mean 2.41; for Under-Eye Area Wrinkles clinical grading Mean: Baseline mean 3.19; for Crows Feet Wrinkles clinical grading Mean: Baseline mean 3.29; for Face Tactile Roughness/Smoothness clinical grading Mean: Baseline mean 3.48; for Face Fine Lines (Overall) clinical grading Mean: Baseline mean 4.29; for Face Pore Size clinical grading Mean: Baseline mean 4.41; for Face Global Firmness Appearance clinical grading Mean: Baseline mean 5.03; for Face Mottled Pigmentation clinical grading Mean / Face Uneven Skin Tone clinical grading Mean: Baseline mean 5.05; for Face Jawline Contour clinical grading Mean: Baseline mean 5.16; for Face Overall Appearance clinical grading Mean: Baseline mean 5.47; for Face Radiance clinical grading Mean: Baseline mean 5.81
From the text: At baseline (Visit 1), each prospective subject completed an Eligibility and Health Questionnaire, and read and signed a Confidentially Agreement, a Photography Release Form and an Informed Consent Agreement. Each subject was explained the type of study, the detailed procedures and materials to be tested, along with any known adverse reactions that may result from participation. Subjects arrived at the clinic having refrained from applying any moisturizer to the face at least 3 to 5 days prior to visit and having cleansed the face to remove all makeup at least 30 minutes prior to visit. Subjects were consequently not allowed to use any other topical cosmeceuticals, topical retinoid, or moisturizers during the 12 week duration of the study. Subjects used the study product on their face twice daily for 12 weeks. Ordinal grading on a 9-point scale (0=none, 1-3=mild, 4-6=moderate, 7-9=severe) of facial fine lines, mottled pigmentation, uneven skin tone, tactile roughness, global firmness appearance, jaw-line contour, radiance and overall appearance was performed by investigator at baseline, week 1, week 4, week 8 and week 12. Digital high-resolution photography was performed on the front, right and left sides of the face. Each image was taken while the subject's eyes were open. Each subject's baseline photograph was compared to each post-baseline photograph to ensure consistent placement and lighting. Color standards were imaged prior to each study visit. All clinical and corneometer measurements and evaluations were taken at baseline, week 1 (visit 2), week 4 (visit 3), week 8 (visit 4) and week 12 (visit 5). Ultrasound and cutometer measurements and evaluations were taken at baseline, week 4 (visit 3), week 8 (visit 4) and week 12 (visit 5). Completed patient's diaries were reviewed for compliance at each visit. Mean clinical grading and instrumentation scores at each visit were statistically compared to baseline scores using paired t-test. Changes from baseline were considered significant at the p≦0.05 level. Mean percent change from baseline and incidence of positive responders were calculated for all attributes. Comparisons, based on the average from baseline, were made between the test materials using analysis of variance (ANOVA).

[2] = system: facial skin in the crow's feet area; assay: Ultrasound measurement of density of the facial skin, 12 week clinical study; type: in vivo, human; details: for Ultrasound Density Mean: Baseline mean 18.55
From the text: Ultrasound measurements were taken on the left side of each subject's face to measure density of the facial skin in the crow's feet area. Measurements were taken with the probe oriented perpendicular to the body axis while the subjects were resting supine on a padded patient table. All clinical and corneometer measurements and evaluations were taken at baseline, week 1 (visit 2), week 4 (visit 3), week 8 (visit 4) and week 12 (visit 5). Ultrasound and cutometer measurements and evaluations were taken at baseline, week 4 (visit 3), week 8 (visit 4) and week 12 (visit 5). Completed patient's diaries were reviewed for compliance at each visit. Mean clinical grading and instrumentation scores at each visit were statistically compared to baseline scores using paired t-test. Changes from baseline were considered significant at the p≦0.05 level. Mean percent change from baseline and incidence of positive responders were calculated for all attributes. Comparisons, based on the average from baseline, were made between the test materials using analysis of variance (ANOVA).

OCc1ccccc1O[C@@H]1O[C@H](CO)[C@@H](O)[C@H](O)[C@H]1O [Salicin, 2-(Hydroxymethyl)phenyl β-D-glucospyranoside]
Cheek Wrinkles clinical grading Mean ([1]; Week 1): 2.29
Under-Eye Area Wrinkles clinical grading Mean ([1]; Week 1): 3.07
Crows Feet Wrinkles clinical grading Mean ([1]; Week 1): 3.21
Face Tactile Roughness/Smoothness clinical grading Mean ([1]; Week 1): 2.41
Face Fine Lines (Overall) clinical grading Mean ([1]; Week 1): 4.14
Face Pore Size clinical grading Mean ([1]; Week 1): 4.30
Face Global Firmness Appearance clinical grading Mean ([1]; Week 1): 5.04
Face Mottled Pigmentation clinical grading Mean ([1]; Week 1): 5.05
Face Uneven Skin Tone clinical grading Mean ([1]; Week 1): 5.05
Face Jawline Contour clinical grading Mean ([1]; Week 1): 5.14
Face Overall Appearance clinical grading Mean ([1]; Week 1): 5.21
Face Radiance clinical grading Mean ([1]; Week 1): 5.20
Cheek Wrinkles clinical grading % Change ([1]; Week 1 vs Baseline): (−1.5%)
Crows Feet Wrinkles clinical grading % Change ([1]; Week 1 vs Baseline): (−0.5%)
Face Fine Lines (Overall) clinical grading % Change ([1]; Week 1 vs Baseline): (−3.7%)
Face Global Firmness Appearance clinical grading % Change ([1]; Week 1 vs Baseline): (0.3%)
Face Jawline Contour clinical grading % Change ([1]; Week 1 vs Baseline): (0.0%)
Face Mottled Pigmentation clinical grading % Change ([1]; Week 1 vs Baseline): (−0.7%)
Face Overall Appearance clinical grading % Change ([1]; Week 1 vs Baseline): (−4.2%)
Face Pore Size clinical grading % Change ([1]; Week 1 vs Baseline): (−2.4%)
Face Radiance clinical grading % Change ([1]; Week 1 vs Baseline): (−11.0%)
Face Tactile Roughness/Smoothness clinical grading % Change ([1]; Week 1 vs Baseline): (−30.7%)
Face Uneven Skin Tone clinical grading % Change ([1]; Week 1 vs Baseline): (−0.7%)
Under-Eye Area Wrinkles clinical grading % Change ([1]; Week 1 vs Baseline): (−1.7%)
Cheek Wrinkles clinical grading Mean ([1]; Week 4): 2.26
Under-Eye Area Wrinkles clinical grading Mean ([1]; Week 4): 2.79
Crows Feet Wrinkles clinical grading Mean ([1]; Week 4): 3.00
Face Tactile Roughness/Smoothness clinical grading Mean ([1]; Week 4): 2.02
Face Fine Lines (Overall) clinical grading Mean ([1]; Week 4): 3.76
Face Pore Size clinical grading Mean ([1]; Week 4): 4.05
Face Global Firmness Appearance clinical grading Mean ([1]; Week 4): 4.86
Face Mottled Pigmentation clinical grading Mean ([1]; Week 4): 4.74
Face Uneven Skin Tone clinical grading Mean ([1]; Week 4): 4.74
Face Jawline Contour clinical grading Mean ([1]; Week 4): 5.10
Face Overall Appearance clinical grading Mean ([1]; Week 4): 4.91
Face Radiance clinical grading Mean ([1]; Week 4): 4.90
Cheek Wrinkles clinical grading % Change ([1]; Week 4 vs Baseline): (−6.4%)
Crows Feet Wrinkles clinical grading % Change ([1]; Week 4 vs Baseline): (−8.9%)
Face Fine Lines (Overall) clinical grading % Change ([1]; Week 4 vs Baseline): (−12.4%)
Face Global Firmness Appearance clinical grading % Change ([1]; Week 4 vs Baseline): (−3.4%)
Face Jawline Contour clinical grading % Change ([1]; Week 4 vs Baseline): (−1.0%)
Face Mottled Pigmentation clinical grading % Change ([1]; Week 4 vs Baseline): (−6.1%)
Face Overall Appearance clinical grading % Change ([1]; Week 4 vs Baseline): (−10.0%)
Face Pore Size clinical grading % Change ([1]; Week 4 vs Baseline): (−8.2%)
Face Radiance clinical grading % Change ([1]; Week 4 vs Baseline): (−15.7%)
Face Tactile Roughness/Smoothness clinical grading % Change ([1]; Week 4 vs Baseline): (−42.0%)
Face Uneven Skin Tone clinical grading % Change ([1]; Week 4 vs Baseline): (−6.1%)
Under-Eye Area Wrinkles clinical grading % Change ([1]; Week 4 vs Baseline): (−12.4%)
Cheek Wrinkles clinical grading Mean ([1]; Week 8): 2.12
Under-Eye Area Wrinkles clinical grading Mean ([1]; Week 8): 2.55
Crows Feet Wrinkles clinical grading Mean ([1]; Week 8): 2.71
Face Tactile Roughness/Smoothness clinical grading Mean ([1]; Week 8): 1.43
Face Fine Lines (Overall) clinical grading Mean ([1]; Week 8): 3.47
Face Pore Size clinical grading Mean ([1]; Week 8): 3.86
Face Global Firmness Appearance clinical grading Mean ([1]; Week 8): 4.64
Face Mottled Pigmentation clinical grading Mean ([1]; Week 8): 4.57
Face Uneven Skin Tone clinical grading Mean ([1]; Week 8): 4.57
Face Jawline Contour clinical grading Mean ([1]; Week 8): 4.95
Face Overall Appearance clinical grading Mean ([1]; Week 8): 4.67
Face Radiance clinical grading Mean ([1]; Week 8): 4.72
Cheek Wrinkles clinical grading % Change ([1]; Week 8 vs Baseline): (−12.1%)
Crows Feet Wrinkles clinical grading % Change ([1]; Week 8 vs Baseline): (−17.8%)
Face Fine Lines (Overall) clinical grading % Change ([1]; Week 8 vs Baseline): (−19.2%)
Face Global Firmness Appearance clinical grading % Change ([1]; Week 8 vs Baseline): (−7.8%)
Face Jawline Contour clinical grading % Change ([1]; Week 8 vs Baseline): (−4.0%)
Face Mottled Pigmentation clinical grading % Change ([1]; Week 8 vs Baseline): (−9.5%)
Face Overall Appearance clinical grading % Change ([1]; Week 8 vs Baseline): (−14.5%)
Face Pore Size clinical grading % Change ([1]; Week 8 vs Baseline): (−12.5%)
Face Radiance clinical grading % Change ([1]; Week 8 vs Baseline): (−18.6%)
Face Tactile Roughness/Smoothness clinical grading % Change ([1]; Week 8 vs Baseline): (−58.9%)
Face Uneven Skin Tone clinical grading % Change ([1]; Week 8 vs Baseline): (−9.5%)
Under-Eye Area Wrinkles clinical grading % Change ([1]; Week 8 vs Baseline): (−20.0%)
Cheek Wrinkles clinical grading Mean ([1]; Week 12): 2.02
Under-Eye Area Wrinkles clinical grading Mean ([1]; Week 12): 2.24
Crows Feet Wrinkles clinical grading Mean ([1]; Week 12): 2.48
Face Tactile Roughness/Smoothness clinical grading Mean ([1]; Week 12): 0.98
Face Fine Lines (Overall) clinical grading Mean ([1]; Week 12): 3.10
Face Pore Size clinical grading Mean ([1]; Week 12): 3.71
Face Global Firmness Appearance clinical grading Mean ([1]; Week 12): 4.48
Face Mottled Pigmentation clinical grading Mean ([1]; Week 12): 4.33
Face Uneven Skin Tone clinical grading Mean ([1]; Week 12): 4.34
Face Jawline Contour clinical grading Mean ([1]; Week 12): 4.74
Face Overall Appearance clinical grading Mean ([1]; Week 12): 4.50
Face Radiance clinical grading Mean ([1]; Week 12): 4.59
Cheek Wrinkles clinical grading % Change ([1]; Week 12 vs Baseline): (−16.4%)
Crows Feet Wrinkles clinical grading % Change ([1]; Week 12 vs Baseline): (−24.6%)
Face Fine Lines (Overall) clinical grading % Change ([1]; Week 12 vs Baseline): (−27.7%)
Face Global Firmness Appearance clinical grading % Change ([1]; Week 12 vs Baseline): (−10.9%)
Face Jawline Contour clinical grading % Change ([1]; Week 12 vs Baseline): (−8.0%)
Face Mottled Pigmentation clinical grading % Change ([1]; Week 12 vs Baseline): (−14.3%)
Face Overall Appearance clinical grading % Change ([1]; Week 12 vs Baseline): (−17.6%)
Face Pore Size clinical grading % Change ([1]; Week 12 vs Baseline): (−16.0%)
Face Radiance clinical grading % Change ([1]; Week 12 vs Baseline): (−21.0%)
Face Tactile Roughness/Smoothness clinical grading % Change ([1]; Week 12 vs Baseline): (−71.7%)
Face Uneven Skin Tone clinical grading % Change ([1]; Week 12 vs Baseline): (−13.9%)
Under-Eye Area Wrinkles clinical grading % Change ([1]; Week 12 vs Baseline): (−29.7%)
Ultrasound Density Mean ([2]; Week 4): 21.38
Ultrasound Density % Change ([2]; Week 4 vs Baseline): (15.2%)
Ultrasound Density Mean ([2]; Week 8): 23.52
Ultrasound Density % Change ([2]; Week 8 vs Baseline): (26.7%)
Ultrasound Density Mean ([2]; Week 12): 25.21
Ultrasound Density % Change ([2]; Week 12 vs Baseline): (35.8%)
